We go through eight compounds from PubChem BioAssay (NCI).

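Compound exposure: 48 hours, 5 concentrations, 96-well plates. TGI: total growth inhibition.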 Where a SMILES comes first, the peptide text is derived from it. The star is where a group is joined. Boc = CC(C)(C)OC(=O)*; OBn = c1ccc(CO*)cc1

Among the test systems are U251 CNS; UO-31 renal; SW-620 colon; T-47D breast; ACHN renal; HS 578T breast; HCT-116 colon; IGROV1 ovarian; RPMI-8226 leukemia; HT29 colon; NCI-H226 lung; MDA-MB-435; MOLT-4 leukemia; NCI/ADR-RES ovarian; COLO 205 colon; SF-539 CNS.
Common to all, as to test: NCI anticancer screen, dose series, 48 h

With `Cc1n[nH]c(=O)n1/N=C\CC/C=N\n1c(C)n[nH]c1=O`, the TGI in the assay on U251 CNS, in the assay with UO-31 renal, in the assay on SW-620 colon, in the assay with T-47D breast, in the assay with ACHN renal and with HS 578T breast was over 100 µM in each case. Also, the TGI with HCT-116 colon, with IGROV1 ovarian, in the assay on RPMI-8226 leukemia, with HT29 colon, in the assay with NCI-H226 lung and with MDA-MB-435 was over 100 µM throughout. In addition, the TGI in the assay with MOLT-4 leukemia, in the assay on NCI/ADR-RES ovarian, in the assay on COLO 205 colon and with SF-539 CNS was over 100 µM each time.
`COC1=CC(=O)c2c(O)c3c(c(O)c2C1=O)C=C(C)OC3O` (stereo unspecified): the TGI came out at 7.72 µM in the assay on U251 CNS; 13.3 µM with UO-31 renal; 2.84 µM with SW-620 colon; 7.05 µM in the assay with T-47D breast; 6.89 µM in the assay with ACHN renal; 7.9 µM in the assay on HS 578T breast. Also, the TGI in the assay with HCT-116 colon turned out to be 2.3 µM; in the assay on IGROV1 ovarian it was 5.57 µM; in the assay on RPMI-8226 leukemia, 5.83 µM; with HT29 colon it was 2.7 µM; with NCI-H226 lung, 8.24 µM; in the assay with MDA-MB-435 it was 2.5 µM. The TGI is 5.04 µM in the assay on MOLT-4 leukemia, 3.76 µM with NCI/ADR-RES ovarian, 0.746 µM in the assay on COLO 205 colon and 3.4 µM in the assay with SF-539 CNS.
For the compound `CC(NC(=O)C(Cc1ccccc1)NC(=O)C(Cc1ccccc1)NC(=O)OC(C)(C)C)C(=O)OCc1ccccc1` (stereo not drawn) (Boc-Phe-Phe-Ala-OBn; configuration not given here), the TGI in the assay with U251 CNS, with UO-31 renal, in the assay on SW-620 colon, in the assay on T-47D breast, with HS 578T breast and with HCT-116 colon was over 100 µM each time. The TGI with IGROV1 ovarian was over 100 µM; in the assay on RPMI-8226 leukemia, over 100 µM; with HT29 colon, over 100 µM; in the assay on NCI-H226 lung, 84 µM; with MDA-MB-435, over 100 µM; in the assay on MOLT-4 leukemia, over 100 µM. Besides, the TGI in the assay with NCI/ADR-RES ovarian, with COLO 205 colon and in the assay with SF-539 CNS was over 100 µM in each case.
In the case of `O=c1[nH]c(-c2ccccc2)nc2c1sc1nc3ccccc3n12`, the TGI with U251 CNS was over 100 µM; in the assay on UO-31 renal, over 100 µM; in the assay with SW-620 colon it was over 100 µM; with T-47D breast it was over 100 µM; in the assay on ACHN renal it was over 100 µM; in the assay with HS 578T breast, 82.5 µM. Besides, the TGI in the assay on HCT-116 colon, in the assay with IGROV1 ovarian, with RPMI-8226 leukemia, in the assay with HT29 colon, in the assay on NCI-H226 lung and in the assay on MDA-MB-435 was over 100 µM each time. Moreover, the TGI in the assay on MOLT-4 leukemia, in the assay with NCI/ADR-RES ovarian, with COLO 205 colon and with SF-539 CNS was over 100 µM in each case.
In the case of `O=C(/C=C/c1ccccc1)CSc1nc2ccc(I)cc2c(=O)n1Cc1ccccc1`, the TGI was over 100 µM in the assay with U251 CNS; 0.553 µM with UO-31 renal; over 100 µM in the assay on SW-620 colon; over 100 µM in the assay on T-47D breast; over 100 µM in the assay on ACHN renal; 67.7 µM in the assay on HS 578T breast. Also, the TGI was over 100 µM in the assay on HCT-116 colon; over 68 µM with IGROV1 ovarian; over 88 µM in the assay on RPMI-8226 leukemia; over 100 µM in the assay with HT29 colon; over 84.4 µM in the assay on NCI-H226 lung; over 100 µM in the assay on MDA-MB-435. Also, the TGI in the assay with MOLT-4 leukemia was 35.2 µM; with NCI/ADR-RES ovarian, over 100 µM; in the assay on COLO 205 colon, over 67.8 µM; with SF-539 CNS, over 100 µM.
As for `COC(=O)CC(=O)Nc1sccc1S(=O)(=O)c1ccccc1`, the TGI in the assay on U251 CNS, in the assay with UO-31 renal, with SW-620 colon, with T-47D breast, in the assay with ACHN renal and with HS 578T breast was over 100 µM throughout. Also, the TGI in the assay on HCT-116 colon was over 100 µM; in the assay with IGROV1 ovarian, over 100 µM; in the assay with RPMI-8226 leukemia, over 100 µM; in the assay with HT29 colon, over 100 µM; in the assay with NCI-H226 lung, 95 µM; with MDA-MB-435, over 100 µM. Moreover, the TGI with MOLT-4 leukemia, in the assay on NCI/ADR-RES ovarian, with COLO 205 colon and in the assay on SF-539 CNS was over 100 µM throughout.
Turning to `C/C(CC1SCCCS1)=C(/C)CC1SCCCS1`, the TGI with UO-31 renal, in the assay on SW-620 colon, with T-47D breast, with ACHN renal, in the assay on HS 578T breast and in the assay with HCT-116 colon was over 100 µM throughout. Moreover, the TGI in the assay on IGROV1 ovarian, with RPMI-8226 leukemia, with HT29 colon, in the assay with NCI-H226 lung, with MDA-MB-435 and with MOLT-4 leukemia was over 100 µM throughout. Moreover, the TGI in the assay with NCI/ADR-RES ovarian, in the assay on COLO 205 colon and with SF-539 CNS was over 100 µM each time.
Regarding `Cn1cnc(N2CCCC2)c(C#N)c1=O`, the TGI with U251 CNS, in the assay on UO-31 renal, in the assay with SW-620 colon, in the assay on T-47D breast, with ACHN renal and in the assay on HS 578T breast was over 100 µM in each case. For the same compound, the TGI in the assay on HCT-116 colon, in the assay on IGROV1 ovarian, in the assay on RPMI-8226 leukemia, with HT29 colon, in the assay on NCI-H226 lung and with MDA-MB-435 was over 100 µM throughout. Also, the TGI in the assay on MOLT-4 leukemia, in the assay on NCI/ADR-RES ovarian, in the assay with COLO 205 colon and in the assay with SF-539 CNS was over 100 µM each time.
